{
  "source": "patent US20100298141A1",
  "about": "“SUBSTITUTED PYRIDINE N-OXIDE HERBICIDES” (E. I. DU PONT DE NEMOURS AND COMPANY, priority 2007, published 2010)",
  "key": {"canarygrass": {"test_system": "canarygrass", "assay": "Test C postemergence test", "format": "in vivo, Phalaris minor", "settings": "for Plant response rating, Canarygrass: scale 0 to 100, 0 no effect, 100 complete control", "outline": "(§1)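 Postemergence sprays of formulated test chemicals on plants 2 to 18 cm tall (1- to 4-leaf stage). Greenhouse hold for 13 to 15 days, then visual rating of each species against untreated controls; dash means no test result.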"}, "wild oat": {"test_system": "wild oat", "assay": "Test D preemergence test", "format": "in vivo, Avena fatua", "settings": "scale 0 to 100", "description": "Seeds of plant species selected from annual bluegrass (Poa annua), blackgrass (Alopecurus myosuroides), downy bromegrass (Bromus tectorum), field violet (Viola arvensis), green foxtail (Setaria viridis), Italian ryegrass (Lolium multiflorum), littleseed canarygrass (Phalaris minor), spring wheat (Triticum aestivum), wild oat (Avena fatua), […]), winter barley (Hordeum vulgare), and winter wheat (Triticum aestivum) were planted and treated preemergence with test chemicals formulated in a non-phytotoxic solvent mixture which included a surfactant. […] A dash (-) response means no test result."}, "barnyardgrass": {"test_system": "barnyardgrass", "assay": "Test G preemergence test", "format": "in vivo, Echinochloa crus-galli", "settings": "scale 0 to 100"}, "yellow nutsedge": {"test_system": "yellow nutsedge", "assay": "Test G preemergence test", "format": "in vivo, Cyperus esculentus", "settings": "scale 0 to 100"}, "Russian thistle": {"test_system": "Russian thistle", "assay": "Test F preemergence test", "format": "in vivo, Salsola kali", "settings": "scale 0 to 100", "description": "Seeds of plant species selected from bermudagrass (Cynodon dactylon), Surinam grass (Brachiaria decumbens), large crabgrass (Digitaria sanguinalis), green foxtail (Setaria viridis), goosegrass (Eleusine indica), johnsongrass (Sorghum halepense), kochia (Kochia scoparia), pitted morningglory (Ipomoea lacunosa), purple nutsedge (Cyperus rotundus), common ragweed (Ambrosia elation), mustard (Brassica nigra), guineagrass (Panicum maximum), […] (Paspalum dilatatum), barnyardgrass (Echinochloa crus-galli), southern sandbur (Cenchrus echinatus), common sowthistle (Sonchus oleraceous), prickly […] spinosa), Italian ryegrass (Lolium multiflorum), common purslane (Portulaca oleracea), broadleaf signalgrass (Brachiaria platyphylla), common groundsel (Senecio vulgaris), common chickweed (Stellaria media), Virginia dayflower (Commelina virginica), annual bluegrass (Poa annua), naked crabgrass (Digitaria nuda), […] cochinchinensis), quackgrass (Elytrigia repens), Canada horseweed (Conyza canadensis), field bindweed (Convolvulus arvensis), […] (Bidens bipinnata), common mallow (Malva sylvestris), Russian thistle (Salsola kali), and sugarcane (Saccharum officinarum) were planted and treated preemergence with test chemicals formulated in a non-phytotoxic solvent mixture which included a surfactant. At a different time, sugarcane was treated with postemergence applications of some of the test chemicals formulated in the same manner. Plants were approximately 3- to 4-leaf stage for the postemergence treatments. Treated plants and controls were maintained in a greenhouse for 14 to 21 days, after which time all species were compared to controls and visually evaluated. […] A dash (-) response means no test result."}, "guineagrass": {"test_system": "guineagrass", "assay": "Test F preemergence test", "format": "in vivo, Panicum maximum", "settings": "scale 0 to 100", "outline": "(§2)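 Greenhouse screen: test chemical in surfactant-containing non-phytotoxic solvent applied preemergence to sown seeds or postemergence to sugarcane plants; after 14 to 21 days each species scored visually versus controls.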"}, "chickweed": {"test_system": "chickweed", "assay": "Test C postemergence test", "format": "in vivo, Stellaria media", "settings": "for Plant response rating, Chickweed: scale 0 to 100, 0 no effect, 100 complete control", "outline": "as §1"}, "common chickweed": {"test_system": "common chickweed", "assay": "Test F preemergence test", "format": "in vivo, Stellaria media", "settings": "scale 0 to 100", "outline": "as §2"}, "common sowthistle": {"test_system": "common sowthistle", "assay": "Test F preemergence test", "format": "in vivo, Sonchus oleraceous", "settings": "scale 0 to 100", "outline": "as §2"}, "windgrass": {"test_system": "windgrass", "assay": "Test C pre-/postemergence test", "format": "in vivo, Apera spica-venti", "settings": "Postemergence; for Plant response rating, Windgrass: scale 0 to 100, 0 no effect, 100 complete control"}, "winter barley": {"test_system": "winter barley", "assay": "Test C postemergence test", "format": "in vivo, Hordeum vulgare", "settings": "for Plant response rating, Barley: scale 0 to 100, 0 no effect, 100 complete control", "outline": "as §1"}},
  "data": [
    {"smiles": "Cn1nc(C(F)(F)F)c(C[S+]([O-])c2cccc[n+]2[O-])c1OC(F)F", "note": "(centres unmarked) [Compound 3]", "values": [
      {"measurement": "Plant response rating (0 to 100), Canarygrass", "setting": "canarygrass; 31 g ai/ha", "result": 0},
      {"measurement": "Plant response rating, Canarygrass", "setting": "canarygrass; 62 g ai/ha", "result": 0},
      {"measurement": "Plant response rating, Canarygrass", "setting": "canarygrass; 125 g ai/ha", "result": 0},
      {"measurement": "Plant response rating, Canarygrass", "setting": "canarygrass; 250 g ai/ha", "result": 0},
      {"measurement": "Plant response rating, Oat, Wild", "setting": "wild oat; 31 g ai/ha", "result": 0},
      {"measurement": "Plant response rating, Oat, Wild", "setting": "wild oat; 62 g ai/ha", "result": 0},
      {"measurement": "Plant response rating, Oat, Wild", "setting": "wild oat; 125 g ai/ha", "result": 10},
      {"measurement": "Plant response rating, Oat, Wild", "setting": "wild oat; 250 g ai/ha", "result": 20},
      {"measurement": "Plant response rating, Barnyardgrass", "setting": "barnyardgrass; 31 g ai/ha", "result": 0},
      {"measurement": "Plant response rating, Barnyardgrass", "setting": "barnyardgrass; 62 g ai/ha", "result": 70},
      {"measurement": "Plant response rating, Barnyardgrass", "setting": "barnyardgrass; 125 g ai/ha", "result": 100},
      {"measurement": "Plant response rating, Barnyardgrass", "setting": "barnyardgrass; 250 g ai/ha", "result": 100},
      {"measurement": "Plant response rating, Nutsedge, Yellow", "setting": "yellow nutsedge; 31 g ai/ha", "result": 0},
      {"measurement": "Plant response rating, Nutsedge, Yellow", "setting": "yellow nutsedge; 62 g ai/ha", "result": 15},
      {"measurement": "Plant response rating, Nutsedge, Yellow", "setting": "yellow nutsedge; 125 g ai/ha", "result": 65},
      {"measurement": "Plant response rating, Nutsedge, Yellow", "setting": "yellow nutsedge; 250 g ai/ha", "result": 65},
      {"measurement": "Plant response rating, Russian Thistle", "setting": "Russian thistle; 8 g ai/ha, preemergence", "result": 0},
      {"measurement": "Russian Thistle plant response rating", "setting": "Russian thistle; 62 g ai/ha, Preemergence", "result": 100},
      {"measurement": "Plant response rating, Russian Thistle", "setting": "Russian thistle; Preemergence, 16 g ai/ha", "result": 0},
      {"measurement": "Plant response rating, Russian Thistle", "setting": "Russian thistle; Preemergence, 31 g ai/ha", "result": 35},
      {"measurement": "Plant response rating, Guineagrass", "setting": "guineagrass; 8 g ai/ha, preemergence", "result": 0},
      {"measurement": "Guineagrass plant response rating", "setting": "guineagrass; 62 g ai/ha, Preemergence", "result": 100},
      {"measurement": "Plant response rating, Guineagrass", "setting": "guineagrass; Preemergence, 16 g ai/ha", "result": 90},
      {"measurement": "Plant response rating, Guineagrass", "setting": "guineagrass; Preemergence, 31 g ai/ha", "result": 100},
      {"measurement": "Plant response rating (0 to 100), Chickweed", "setting": "chickweed; 31 g ai/ha", "result": 10},
      {"measurement": "Plant response rating, Chickweed", "setting": "chickweed; 62 g ai/ha", "result": 70},
      {"measurement": "Plant response rating, Chickweed", "setting": "chickweed; 125 g ai/ha", "result": 85},
      {"measurement": "Plant response rating, Chickweed", "setting": "chickweed; 250 g ai/ha", "result": 95},
      {"measurement": "Plant response rating, Chickweed", "setting": "common chickweed; 8 g ai/ha, preemergence", "result": 25},
      {"measurement": "Chickweed plant response rating", "setting": "common chickweed; 62 g ai/ha, Preemergence", "result": 100},
      {"measurement": "Plant response rating, Chickweed", "setting": "common chickweed; Preemergence, 16 g ai/ha", "result": 98},
      {"measurement": "Plant response rating, Chickweed", "setting": "common chickweed; Preemergence, 31 g ai/ha", "result": 100},
      {"measurement": "Plant response rating, Sowthistle", "setting": "common sowthistle; 8 g ai/ha, preemergence", "result": 0},
      {"measurement": "Plant response rating, Sowthistle", "setting": "common sowthistle; 16 g ai/ha, preemergence", "result": 0},
      {"measurement": "Sowthistle plant response rating", "setting": "common sowthistle; 62 g ai/ha, Preemergence", "result": 100},
      {"measurement": "Plant response rating, Sowthistle", "setting": "common sowthistle; Preemergence, 31 g ai/ha", "result": 65},
      {"measurement": "Plant response rating (0 to 100), Windgrass", "setting": "windgrass; 31 g ai/ha", "result": 0},
      {"measurement": "Plant response rating (0 to 100), Windgrass", "setting": "windgrass; 62 g ai/ha", "result": 0},
      {"measurement": "Plant response rating, Windgrass", "setting": "windgrass; 125 g ai/ha", "result": 20},
      {"measurement": "Plant response rating, Windgrass", "setting": "windgrass; 250 g ai/ha", "result": 70},
      {"measurement": "Plant response rating (0 to 100), Barley", "setting": "winter barley; 31 g ai/ha", "result": 0},
      {"measurement": "Plant response rating, Barley", "setting": "winter barley; 62 g ai/ha", "result": 0},
      {"measurement": "Plant response rating, Barley", "setting": "winter barley; 125 g ai/ha", "result": 0},
      {"measurement": "Plant response rating, Barley", "setting": "winter barley; 250 g ai/ha", "result": 0}
    ]},
    {"smiles": "Cn1nc(C(F)(F)F)c(C(Cl)S(=O)(=O)c2cccc[n+]2[O-])c1Cl", "note": "(centres unmarked) [Compound 12]", "values": [
      {"measurement": "Plant response rating, Oat, Wild", "setting": "wild oat; 31 g ai/ha", "result": 0},
      {"measurement": "Plant response rating, Oat, Wild", "setting": "wild oat; 62 g ai/ha", "result": 0},
      {"measurement": "Plant response rating, Oat, Wild", "setting": "wild oat; 125 g ai/ha", "result": 0},
      {"measurement": "Plant response rating, Oat, Wild", "setting": "wild oat; 250 g ai/ha", "result": 0},
      {"measurement": "Plant response rating, Barnyardgrass", "setting": "barnyardgrass; 31 g ai/ha", "result": 65},
      {"measurement": "Plant response rating, Barnyardgrass", "setting": "barnyardgrass; 62 g ai/ha", "result": 95},
      {"measurement": "Plant response rating, Barnyardgrass", "setting": "barnyardgrass; 125 g ai/ha", "result": 100},
      {"measurement": "Plant response rating, Barnyardgrass", "setting": "barnyardgrass; 250 g ai/ha", "result": 100},
      {"measurement": "Plant response rating, Nutsedge, Yellow", "setting": "yellow nutsedge; 31 g ai/ha", "result": 0},
      {"measurement": "Plant response rating, Nutsedge, Yellow", "setting": "yellow nutsedge; 62 g ai/ha", "result": 0},
      {"measurement": "Plant response rating, Nutsedge, Yellow", "setting": "yellow nutsedge; 125 g ai/ha", "result": 0},
      {"measurement": "Plant response rating, Nutsedge, Yellow", "setting": "yellow nutsedge; 250 g ai/ha", "result": 20}
    ]},
    {"smiles": "Cc1cc[n+]([O-])c(S(=O)(=O)C(C)c2c(C(F)(F)F)nn(C)c2Cl)c1", "note": "(racemic) [Compound 14]", "values": [
      {"measurement": "Plant response rating, Oat, Wild", "setting": "wild oat; 31 g ai/ha", "result": 0},
      {"measurement": "Plant response rating, Oat, Wild", "setting": "wild oat; 62 g ai/ha", "result": 0},
      {"measurement": "Plant response rating, Oat, Wild", "setting": "wild oat; 125 g ai/ha", "result": 0},
      {"measurement": "Plant response rating, Oat, Wild", "setting": "wild oat; 250 g ai/ha", "result": 20},
      {"measurement": "Plant response rating, Barnyardgrass", "setting": "barnyardgrass; 31 g ai/ha", "result": 0},
      {"measurement": "Plant response rating, Barnyardgrass", "setting": "barnyardgrass; 62 g ai/ha", "result": 45},
      {"measurement": "Plant response rating, Barnyardgrass", "setting": "barnyardgrass; 125 g ai/ha", "result": 70},
      {"measurement": "Plant response rating, Barnyardgrass", "setting": "barnyardgrass; 250 g ai/ha", "result": 100},
      {"measurement": "Plant response rating, Nutsedge, Yellow", "setting": "yellow nutsedge; 31 g ai/ha", "result": 0},
      {"measurement": "Plant response rating, Nutsedge, Yellow", "setting": "yellow nutsedge; 62 g ai/ha", "result": 0},
      {"measurement": "Plant response rating, Nutsedge, Yellow", "setting": "yellow nutsedge; 125 g ai/ha", "result": 0},
      {"measurement": "Plant response rating, Nutsedge, Yellow", "setting": "yellow nutsedge; 250 g ai/ha", "result": 65}
    ]}
  ]
}
